Measurements reported in patent publication US20210179578A1, “OX1 ANTAGONISTS” (Heptares Therapeutics Limited, priority 2017, published 2021).

Key:
[1] = target: T1, human OX2 receptor (Homo sapiens, UniProt O43614); experiment: IPone accumulation assay, CHO cells expressing OX2 (antagonism of orexin A); type: cell-based; conditions: CHO human OX2, orexin A EC80 challenge (40 nM), read-out: fpKb average OX2 (converted)
T1 sequence (O43614 1-444): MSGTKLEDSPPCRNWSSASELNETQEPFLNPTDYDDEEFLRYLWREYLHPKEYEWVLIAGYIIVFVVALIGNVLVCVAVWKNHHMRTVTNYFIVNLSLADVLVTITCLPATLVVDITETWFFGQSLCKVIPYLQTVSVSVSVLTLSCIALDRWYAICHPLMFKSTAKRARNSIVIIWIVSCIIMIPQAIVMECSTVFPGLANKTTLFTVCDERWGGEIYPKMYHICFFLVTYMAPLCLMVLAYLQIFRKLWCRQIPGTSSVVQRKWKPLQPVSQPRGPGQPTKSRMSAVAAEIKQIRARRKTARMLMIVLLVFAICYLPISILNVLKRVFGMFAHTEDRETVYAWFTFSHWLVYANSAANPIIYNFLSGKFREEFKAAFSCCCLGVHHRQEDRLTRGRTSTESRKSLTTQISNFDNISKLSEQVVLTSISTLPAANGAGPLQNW
Protocol: Generation of CHO stable cell lines expressing the human OX1R and OX2R. Stable cell lines for the human OX1R and OX2R receptors were generated through the transfection of CHO cells using the transfection reagent Genejuice (Novagen number 70967) and cDNA coding for either the human OX1R or OX2R. Cells were cultured in Sigma Nutrient Mixture F-12 Ham media (catalog number N6658) supplemented with 10% heat-inactivated FBS. Forty-eight hours after transfection, cells were harvested and placed under geneticin selection by culturing in Sigma Nutrient Mixture F-12 Ham media supplemented with 10% heat-inactivated FBS and geneticin (ThermoFisher Catalog number: 10131035). Selection of the final stable clone for each receptor was made on the basis of receptor expression, assay signal to noise and robustness though increasing passage. Selected clones for the human OX1R and OX2R were then frozen down into liquid nitrogen using Cell Freezing Medium-DMSO (Sigma-Aldrich catalog number: C6164).
(§1) IPone accumulation assay. A CHO cell line stably expressing either human OX1 or OX2 receptor was used with the IPone HTRF assay kit (CisBio: Part #62IPAPEJ) to measure receptor activation. The assay was optimised to measure the ability (potency; fpKb) of antagonists to reduce agonist (orexin A)-induced inositol phosphate turnover. Briefly, cells were plated onto half area 96-well white walled plates at a density of 12,500 cells/well. Sixteen hours post-plating cell growth media was replaced with antagonist concentration-response curve diluted in stimulation buffer (supplied with the kit). Cells were incubated in a humidified incubator (37° C.) for 30 min before an EC80 challenge concentration (˜20 nM (OX1) and 40 nM (OX2)) of orexin A (Tocris catalogue number 1455). After 30 min stimulation in a humidified incubator (37° C.) the assay was terminated by the addition of detection mixture as per manufacturer's instructions. The concentration of compound which reduced orexin-A stimulated turnover of inositol phosphates by 50% (IC50) was calculated by fitting to a four parameter sigmoidal dose response curve. The IC50 values were converted to fpKB values using the orexin A pEC50 value estimated on each plate as well as the challenge concentration interpolated from the orexin A control curve.

[2] = target: T2, human OX1 receptor (Homo sapiens, UniProt O43613); experiment: IPone accumulation assay, CHO cells expressing OX1 (antagonism of orexin A); type: cell-based; conditions: IPone accumulation, CHO human OX1, orexin A EC80 challenge (~20 nM); read-out: fpKb average OX1 (converted)
T2 sequence (O43613 1-425): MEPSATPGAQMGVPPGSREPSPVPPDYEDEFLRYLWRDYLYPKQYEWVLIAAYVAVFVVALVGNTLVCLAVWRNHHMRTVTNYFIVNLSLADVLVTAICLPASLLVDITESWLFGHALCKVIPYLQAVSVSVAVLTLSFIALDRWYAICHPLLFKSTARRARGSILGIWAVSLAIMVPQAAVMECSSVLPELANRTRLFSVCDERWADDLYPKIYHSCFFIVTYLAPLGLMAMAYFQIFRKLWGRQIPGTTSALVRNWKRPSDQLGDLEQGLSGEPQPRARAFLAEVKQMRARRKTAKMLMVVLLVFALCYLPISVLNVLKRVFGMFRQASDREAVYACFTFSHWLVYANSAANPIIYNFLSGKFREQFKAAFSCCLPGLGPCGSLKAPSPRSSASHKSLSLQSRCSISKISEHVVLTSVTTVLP
Protocol: as §1, with “Generation of CHO stable cell lines expressing the human OX1R and OX2R. Stable cell lines for the human OX1R and OX2R receptors were generated through the transfection of CHO cells using the transfection reagent Genejuice (Novagen number 70967) and cDNA coding for either the human OX1R or OX2R. Cells were cultured in Sigma Nutrient Mixture F-12 Ham media (catalog number N6658) supplemented with 10% heat-inactivated FBS. Forty-eight hours after transfection, cells were harvested and placed under geneticin selection by culturing in Sigma Nutrient Mixture F-12 Ham media supplemented with 10% heat-inactivated FBS and geneticin (ThermoFisher Catalog number: 10131035). Selection of the final stable clone for each receptor was made on the basis of receptor expression, assay signal to noise and robustness though increasing passage. Selected clones for the human OX1R and OX2R were then frozen down into liquid nitrogen using Cell Freezing Medium-DMSO (Sigma-Aldrich catalog number: C6164). IPone accumulation” for “IPone accumulation”, “(CisBio: Part #62[…]) to measure” for “(CisBio: Part #62IPAPEJ) to measure”, “challenge concentration ( 20 nM (OX1)” for “challenge concentration (˜20 nM (OX1)”

Compound | Kb [1] [nM] | Kb [2] [nM]
COc1ncc(C2CCc3c(F)cccc3N(Cc3c(F)cc(Br)cc3F)C2=O)cc1S(C)(=O)=O (racemic) [Example 19, 1-(4-bromo-2,6-difluorobenzyl)-6-fluoro-3-[6-methoxy-5-(methylsulfonyl)pyridin-3-yl]-1,3,4,5-tetrahydro-2H-1-benzazepin-2-one] | > 3160 | 31.6
COc1ncc(N2CCc3c(F)cccc3N(Cc3c(F)cc(Cl)cc3F)C2=O)cc1C(C)(F)F [Example 9, 1-(4-chloro-2,6-difluorobenzyl)-3-[5-(1,1-difluoroethyl)-6-methoxypyridin-3-yl]-6-fluoro-1,3,4,5-tetrahydro-2H-1,3-benzodiazepin-2-one] | > 3160 | 25.1
COCc1cc(F)c(CN2C(=O)N(c3cnc(C)c(C(C)(F)F)c3)CCc3c(F)cccc32)c(F)c1 [Example 33, 3-[5-(1,1-difluoroethyl)-6-methylpyridin-3-yl]-1-[2,6-difluoro-4-(methoxymethyl)benzyl]-6-fluoro-1,3,4,5-tetrahydro-2H-1,3-benzodiazepin-2-one] | 1000 | 15.8
COc1cc(F)c(CN2C(=O)N(c3cnc(OC)c(S(C)(=O)=O)c3)CCc3c(F)cccc32)c(F)c1 [Example 16, 1-(2,6-difluoro-4-methoxybenzyl)-6-fluoro-3-[6-methoxy-5-(methylsulfonyl)pyridin-3-yl]-1,3,4,5-tetrahydro-2H-1,3-benzodiazepin-2-one] | > 3980 | 15.8
Cc1ncc(C2CCc3c(F)cccc3N(Cc3c(F)cc(Br)cc3F)C2=O)cc1S(C)(=O)=O (single isomer, unassigned) [Example 38, 1-(4-bromo-2,6-difluorobenzyl)-6-fluoro-3-[6-methyl-5-(methylsulfonyl)pyridin-3-yl]-1,3,4,5-tetrahydro-2H-1-benzazepin-2-one] | > 398 | 20
COc1ncc(C2CCc3c(F)cccc3N(Cc3c(F)cc(Br)cc3F)C2=O)cc1C(C)(F)F (single isomer, unassigned) [Example 12, 1-(4-bromo-2,6-difluorobenzyl)-3-[5-(1,1-difluoroethyl)-6-methoxypyridin-3-yl]-6-fluoro-1,3,4,5-tetrahydro-2H-1-benzazepin-2-one] | > 1000 | 12.6
COc1ncc(N2CCc3c(F)cccc3N(Cc3c(F)cc(Br)cc3F)C2=O)cc1C(C)(F)F [Example 3, 1-(4-bromo-2,6-difluorobenzyl)-3-[5-(1,1-difluoroethyl)-6-methoxypyridin-3-yl]-6-fluoro-1,3,4,5-tetrahydro-2H-1,3-benzodiazepin-2-one] | > 794 | 50.1
Cc1cc(C)c(S(C)(=O)=O)cc1N1CCc2c(F)cccc2N(Cc2c(F)cc(Br)cc2F)C1=O [Example 31, 1-(4-bromo-2,6-difluorobenzyl)-3-[2,4-dimethyl-5-(methylsulfonyl)phenyl]-6-fluoro-1,3,4,5-tetrahydro-2H-1,3-benzodiazepin-2-one] | > 316 | 20
Cc1cc(C)c(S(C)(=O)=O)cc1N1CCc2ccccc2N(Cc2c(F)cc(Br)cc2F)C1=O [Example 29, 1-(4-bromo-2,6-difluorobenzyl)-3-[2,4-dimethyl-5-(methylsulfonyl)phenyl]-1,3,4,5-tetrahydro-2H-1,3-benzodiazepin-2-one] | 398 | 39.8
COc1cc(F)c(CN2C(=O)N(c3cc(S(C)(=O)=O)c(OC)nc3OC)CCc3c(F)cccc32)c(F)c1 [Example 25, 1-(2,6-difluoro-4-methoxybenzyl)-3-[2,6-dimethoxy-5-(methylsulfonyl)pyridin-3-yl]-6-fluoro-1,3,4,5-tetrahydro-2H-1,3-benzodiazepin-2-one] | > 3980 | 10
COc1nc(OC)c(C(C)(F)F)cc1N1CCc2c(F)cccc2N(Cc2c(F)cc(Br)cc2F)C1=O [Example 23, 1-(4-bromo-2,6-difluorobenzyl)-3-[5-(1,1-difluoroethyl)-2,6-dimethoxypyridin-3-yl]-6-fluoro-1,3,4,5-tetrahydro-2H-1,3-benzodiazepin-2-one] | > 1580 | 50.1
COc1ncc(N2CCc3c(F)cccc3N(Cc3c(C)cc(Br)cc3F)C2=O)cc1S(C)(=O)=O [Example 17, 1-(4-bromo-2-fluoro-6-methylbenzyl)-6-fluoro-3-[6-methoxy-5-(methylsulfonyl)pyridin-3-yl]-1,3,4,5-tetrahydro-2H-1,3-benzodiazepin-2-one] | > 2510 | 10
Cc1ncc(C2CCc3c(F)cccc3N(Cc3c(F)cc(Br)cc3F)C2=O)cc1S(C)(=O)=O (single isomer, unassigned) [Example 39, 1-(4-bromo-2,6-difluorobenzyl)-6-fluoro-3-[6-methyl-5-(methylsulfonyl)pyridin-3-yl]-1,3,4,5-tetrahydro-2H-1-benzazepin-2-one] | > 2510 | 31.6
[2H]C([2H])([2H])Oc1cc(F)c(CN2C(=O)N(c3cnc(OC)c(C(C)(F)F)c3)CCc3c(F)cccc32)c(F)c1 [Example 6, 3-[5-(1,1-difluoroethyl)-6-methoxypyridin-3-yl]-1-{2,6-difluoro-4-[(^2H3)methyloxy]benzyl}-6-fluoro-1,3,4,5-tetrahydro-2H-1,3-benzodiazepin-2-one] | 398 | 10
[2H]C([2H])([2H])OCc1cc(F)c(CN2C(=O)N(c3cnc(OC)c(C(C)(F)F)c3)CCc3c(F)cccc32)c(F)c1 [Example 5, 3-[5-(1,1-difluoroethyl)-6-methoxypyridin-3-yl]-1-(2,6-difluoro-4-{[(^2H3)methyloxy]methyl}benzyl)-6-fluoro-1,3,4,5-tetrahydro-2H-1,3-benzodiazepin-2-one] | > 2000 | 1.58
